Like-named read-outs stand apart in the source and are kept apart here.
Key:
[1] = log P determination by HPLC on reversed-phase columns (EEC Directive 79/831 Annex V.A8); assay type: physicochemical; settings: pH 2.7
How it was run: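 Calibration used unbranched alkan-2-ones of 3 to 16 carbons with known log P, values interpolated linearly from retention times between neighbouring standards. Acidic-range LC-MS run at pH 2.7, eluents aqueous and acetonitrile formic acid 0.1%, linear gradient 10% to 95% acetonitrile.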

[2] = tested on: caterpillars of the armyworm (Spodoptera frugiperda); test: Spodoptera frugiperda test (SPODFR spray treatment); assay type: in vivo; settings: 168 h, read-out: activity in %
How it was run: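 Percent caterpillar mortality read 7 days after infestation (0% none killed, 100% all killed). Treatment was a spray of the acetone/DMF/emulsifier formulation, water-diluted to test concentration, onto Zea mays leaf discs, allowed to dry before larvae were added.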

[3] = tested on: larvae of the mustard beetle (Phaedon cochleariae); test: Phaedon test (PHAECO spray treatment); assay type: in vivo; settings: 168 h, read-out: activity in %
How it was run: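 Mortality of mustard beetle larvae, expressed as percent killed (100% all, 0% none), assessed 7 days after spraying. Spray liquor made from compound in acetone plus dimethylformamide with alkylaryl polyglycol ether, diluted in emulsifier-containing water to the desired concentration.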

[4] = reversed-phase C18 HPLC column, HPLC on reversed-phase columns (C 18), EEC Directive 79/831 Annex V.A8, read-out: logP
[5] = HPLC on reversed-phase columns (C 18), EEC Directive 79/831 Annex V.A8, read-out: logP

SMILES	chromatographic logP [1]	pest or weed control at 100 g/ha ([2]; 100 g/ha, after 7 days) [%]	pest or weed control at 100 g/ha ([3]; 100 g/ha, after 7 days) [%]	chromatographic logP [1, 4]	chromatographic logP [1, 5]	pest or weed control at 100 g/ha [2] [%]	pest or weed control at 100 g/ha [3] [%]
CNC(=O)c1cc(C#N)cc(C)c1NC(=O)c1cc(Cn2ncc(-c3ccccc3Cl)n2)nn1-c1ncccc1Cl [Example 43]	3.21	100	100				
Cc1cc(C#N)cc(C(=O)NC(C)C2CC2)c1NC(=O)c1cc(Cn2ncc(C(F)(C(F)(F)F)C(F)(F)F)n2)nn1-c1ncccc1Cl (stereo not drawn) [Example 250]		100	100	4.2			
Cc1cc(C#N)cc(C(=O)NC(C)(C)C)c1NC(=O)c1cc(Cn2nc3ccc(Br)cc3n2)nn1-c1ncccc1Cl [Example 107]	3.85	100	100				
Cc1cc(C#N)cc(C(=O)NC(C)C)c1NC(=O)c1cc(Cn2cc(-c3ccc(C(F)(F)F)cc3)nn2)nn1-c1ncccc1Cl [Example 4]		100	100	3.39			
Cc1cc(C#N)cc(C(=O)NC(C)C)c1NC(=O)c1cc(Cn2ncc(C(F)(C(F)(F)F)C(F)(F)F)n2)nn1-c1ncccc1Cl [Example 251]		100	100	3.89			
Cc1cc(C#N)cc(C(=O)NC(C)C2CC2)c1NC(=O)c1cc(Cn2nc(C(F)(F)F)c(C(F)(F)F)n2)nn1-c1ncccc1Cl (stereo not drawn) [Example 413]		100	100	4.11			
CNC(=O)c1cc(Cl)cc(C)c1NC(=O)c1cc(Cn2cc(-c3ccccc3Cl)nn2)nn1-c1ncccc1Cl [Example 19]	2.74	100	100				
Cc1cc(C#N)cc(C(=O)NC(C)(C)C)c1NC(=O)c1cc(Cn2ncc(C(F)(F)F)n2)nn1-c1ccccc1Cl [Example 285]		100	100	3.93			
Cc1cc(C#N)cc(C(=O)NCC2CC2)c1NC(=O)c1cc(Cn2nc(C(F)(F)F)c(C(F)(F)F)n2)nn1-c1ncccc1Cl [Example 395]	3.89	100	100				
CCNC(=O)c1cc(I)cc(C)c1NC(=O)c1cc(Cn2ncc(C(F)(F)F)n2)nn1-c1ncccc1Cl [Example 160]	3.5	100	100				
Cc1cc(C#N)cc(C(=O)NC(C)(C)C)c1NC(=O)c1cc(Cn2ncc(-c3ccc(Cl)cc3)n2)nn1-c1ncccc1Cl [Example 62]	4.06	100	100				
Cc1cc(I)cc(C(=O)NC(C)(C)C)c1NC(=O)c1cc(Cn2cc(C(F)(C(F)(F)F)C(F)(F)F)nn2)nn1-c1ncccc1Cl [Example 236]		100	100	4.43			
CNC(=O)c1cc(Cl)cc(C)c1NC(=O)c1cc(Cn2nnc3cc(Br)ccc32)nn1-c1ncccc1Cl [Example 86]	2.94	100	100				
Cc1cc(Cl)cc(C(=O)NCC2CC2)c1NC(=O)c1cc(Cn2ncc(C(F)(F)C(F)(F)C(F)(F)F)n2)nn1-c1ncccc1Cl [Example 366]					4.34	100	100
CNC(=O)c1cc(Cl)cc(C)c1NC(=O)c1cc(Cn2nccn2)nn1-c1ncccc1Cl [Example 118]	2.03	100	100				
Cc1cc(Cl)cc(C(=O)NC(C)(C)C)c1NC(=O)c1cc(Cn2ncc(C(F)(C(F)(F)F)C(F)(F)F)n2)nn1-c1ncccc1Cl [Example 260]		100	100	4.64			
Cc1cc(C#N)cc(C(=O)NC2CC2)c1NC(=O)c1cc(Cn2cc(C(F)(F)F)nn2)nn1-c1ccccc1Cl [Example 296]		100	100	2.93			

SMILES	chromatographic logP [1]	pest or weed control at 100 g/ha ([2]; 100 g/ha, after 7 days) [%]	pest or weed control at 100 g/ha ([3]; 100 g/ha, after 7 days) [%]	chromatographic logP [1, 4]	chromatographic logP [1, 5]	pest or weed control at 100 g/ha [2] [%]	pest or weed control at 100 g/ha [3] [%]
CCNC(=O)c1cc(I)cc(C)c1NC(=O)c1cc(Cn2cc(C(F)(F)F)nn2)nn1-c1ncccc1Cl [Example 209]	3.04	100	100				
Cc1cc(I)cc(C(=O)NCC2CC2)c1NC(=O)c1cc(Cn2ncc(C(F)(F)F)n2)nn1-c1ncccc1Cl [Example 163]	3.8	100	100				
CNC(=O)c1cc(C#N)cc(C)c1NC(=O)c1cc(Cn2nnc3c(Cl)cc(C(F)(F)F)cc32)nn1-c1ncccc1Cl [Example 98]	3.24	100	100				
Cc1cc(Cl)cc(C(=O)NC(C)C)c1NC(=O)c1cc(Cn2nccn2)nn1-c1ncccc1Cl [Example 119]	2.5	100	100				
CNC(=O)c1cc(C#N)cc(C)c1NC(=O)c1cc(Cn2ncc(-c3ccc(Cl)cc3)n2)nn1-c1ncccc1Cl [Example 41]	3.34	100	100				
O=C(NC1CC1)c1cc(Cl)cc(Cl)c1NC(=O)c1cc(Cn2cc(C(F)(C(F)(F)F)C(F)(F)F)nn2)nn1-c1ncccc1Cl [Example 248]	3.56	100	100				
CNC(=O)c1cc(C#N)cc(C)c1NC(=O)c1cc(Cn2nc3cc(OC(F)(F)F)cc(Br)c3n2)nn1-c1ncccc1Cl [Example 100]	3.78	100	100				
CCNC(=O)c1cc(I)cc(C)c1NC(=O)c1cc(Cn2nc(C(F)(F)F)c(C(F)(F)F)n2)nn1-c1ncccc1Cl [Example 389]	4.23	100	100				
Cc1cc(Cl)cc(C(=O)NC(C)C)c1NC(=O)c1cc(Cn2ncc(C(F)(C(F)(F)F)C(F)(F)F)n2)nn1-c1ncccc1Cl [Example 259]	4.3	100	100				
CNC(=O)c1cc(C#N)cc(C)c1NC(=O)c1cc(Cn2nnc3cc(Br)ccc32)nn1-c1ncccc1Cl [Example 94]	2.66	100	100				
Cc1cc(C#N)cc(C(=O)NC(C)(C)C)c1NC(=O)c1cc(Cn2ncc(-c3ccc(Cl)cc3Cl)n2)nn1-c1ncccc1Cl [Example 63]	4.67	100	100				
Cc1cc(I)cc(C(=O)NCC2CC2)c1NC(=O)c1cc(Cn2ncc(C(F)(F)C(F)(F)C(F)(F)F)n2)nn1-c1ncccc1Cl [Example 382]					4.59	100	100
Cc1cc(Cl)cc(C(=O)NC(C)C2CC2)c1NC(=O)c1cc(Cn2ncc(C(F)(F)C(F)(F)C(F)(F)F)n2)nn1-c1ncccc1Cl (stereo not drawn) [Example 379]					4.57	100	100
CNC(=O)c1cc(Cl)cc(C)c1NC(=O)c1cc(Cn2nc3ccc(Cl)cc3n2)nn1-c1ncccc1Cl [Example 72]	3.28	100	100				
Cc1cc(C#N)cc(C(=O)NC(C)(C)C)c1NC(=O)c1cc(Cn2nnc3cc(Br)c(C(F)(F)F)cc32)nn1-c1ncccc1Cl [Example 109]		100	100	4.02			
Cc1cc(I)cc(C(=O)NC2CC2)c1NC(=O)c1cc(Cn2ncc(C(F)(F)C(F)(F)F)n2)nn1-c1ncccc1Cl [Example 347]	3.86	100	100				

— patent publication US8536202B2, “Triazole-substituted anthranilamides as pesticides” (Bayer Cropscience AG, priority 2010, dated 2013)
